Experimental data as given in patent publication US12569485B2, “SMARCA inhibitors and uses thereof” (Kymera Therapeutics, Inc., priority 2019, dated 2026).
Structures can show the parent of a compound that is named as a salt.

biological target: T1, SMARCA2 (Homo sapiens, UniProt P51531); test: SMARCA2 HTRF assay; settings: His-tagged SMARCA2-17, average, read-out: SMARCA2 binding Human HTRF: Average IC50
T1 construct: fused on or other part: His tag (6His), detected by the anti-6His terbium cryptate antibody
T1 sequence (P51531 whole entry, the tested form may be a part): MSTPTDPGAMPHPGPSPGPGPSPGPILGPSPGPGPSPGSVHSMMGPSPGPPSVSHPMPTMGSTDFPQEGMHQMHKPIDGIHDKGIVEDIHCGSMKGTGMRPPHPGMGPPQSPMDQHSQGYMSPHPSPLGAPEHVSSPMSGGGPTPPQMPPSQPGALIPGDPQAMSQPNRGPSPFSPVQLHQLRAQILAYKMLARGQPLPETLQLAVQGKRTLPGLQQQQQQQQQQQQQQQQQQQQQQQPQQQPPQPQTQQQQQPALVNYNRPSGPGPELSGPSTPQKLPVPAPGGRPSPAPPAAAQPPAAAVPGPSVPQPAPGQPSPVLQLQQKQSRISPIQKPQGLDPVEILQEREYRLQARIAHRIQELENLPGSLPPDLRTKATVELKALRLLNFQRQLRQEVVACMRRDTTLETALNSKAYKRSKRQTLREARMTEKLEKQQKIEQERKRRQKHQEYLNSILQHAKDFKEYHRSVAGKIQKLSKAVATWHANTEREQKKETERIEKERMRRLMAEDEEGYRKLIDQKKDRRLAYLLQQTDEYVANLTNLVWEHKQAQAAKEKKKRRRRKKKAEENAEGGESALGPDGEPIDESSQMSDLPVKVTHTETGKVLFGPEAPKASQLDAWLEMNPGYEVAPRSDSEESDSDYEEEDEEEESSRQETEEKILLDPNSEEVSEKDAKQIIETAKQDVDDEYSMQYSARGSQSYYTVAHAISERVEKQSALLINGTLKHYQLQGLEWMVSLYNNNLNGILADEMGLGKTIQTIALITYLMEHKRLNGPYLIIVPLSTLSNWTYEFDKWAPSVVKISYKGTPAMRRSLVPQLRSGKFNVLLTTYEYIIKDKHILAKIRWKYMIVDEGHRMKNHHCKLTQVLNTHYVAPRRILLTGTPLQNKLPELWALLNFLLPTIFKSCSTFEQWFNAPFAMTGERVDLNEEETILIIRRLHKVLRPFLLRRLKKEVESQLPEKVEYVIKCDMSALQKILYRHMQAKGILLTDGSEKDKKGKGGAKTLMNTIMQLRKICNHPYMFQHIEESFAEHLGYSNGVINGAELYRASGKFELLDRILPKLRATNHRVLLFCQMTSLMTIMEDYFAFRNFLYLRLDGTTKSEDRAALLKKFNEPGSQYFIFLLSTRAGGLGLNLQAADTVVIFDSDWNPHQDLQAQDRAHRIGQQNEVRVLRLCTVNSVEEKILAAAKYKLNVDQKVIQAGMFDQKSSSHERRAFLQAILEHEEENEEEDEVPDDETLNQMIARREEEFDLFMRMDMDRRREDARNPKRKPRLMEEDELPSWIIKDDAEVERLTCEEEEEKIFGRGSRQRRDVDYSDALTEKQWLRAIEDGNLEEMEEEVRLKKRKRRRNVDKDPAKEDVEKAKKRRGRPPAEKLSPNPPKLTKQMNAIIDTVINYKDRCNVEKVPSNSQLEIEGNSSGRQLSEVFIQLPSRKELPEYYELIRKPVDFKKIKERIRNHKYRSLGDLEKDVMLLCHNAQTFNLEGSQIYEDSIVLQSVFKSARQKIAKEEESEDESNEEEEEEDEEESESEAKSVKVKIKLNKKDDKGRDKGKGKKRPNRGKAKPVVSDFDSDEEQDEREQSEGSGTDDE
Protocol: Sample handling: 1× Epigenetics Buffer is prepared according to manufacturer's instructions. 32 nM SMARCA2-17 (4×) is prepared with Epigenetics Buffer. 4×Tb working solution is prepared by diluting Mab Anti 6His Tb cryptate Gold in PPI-Terbium Detection buffer to 0.21 ng/μ1 (100× dilution from stock). SMARCA2-mAb-Tb working solution is prepared by mixing equal volume of 32 nM SMARCA2 with Tb working solution. A half-hour timer is started. In a 96-well plate, serial dilution of compound DMSO solutions is prepared. […] of Epigenetics Buffer is placed to a second 96-well plate. 1 μl of the 100× compound DMSO solution is transferred to the second 96-well plate to make 4× compound working solution. 5 μl/well of 4× compound working solution is added into the 384-well plate and mixed well. […] of SMARCA2-mAb-Tb working solution is added into 384-well plate. The above mixtures are incubated at room temperature for 30 min. Data is collected and processed on EnVision. 520 nm/495 nm readouts ratio are calculated from raw data.
The letter codes for SMARCA2 average IC50 (μM) include: A (<1 μM), B (1-50 μM), C (51-200 μM), and D (>200 μM).

`O=c1[nH]c2nnc(-c3ccccc3O)cc2c2c1CCNC2` [I-1, 9-(2-hydroxyphenyl)-1,2,3,4-tetrahydropyridazino[3,4-c][2,6]naphthyridin-5(6H)-one hydrochloride] and `O=c1[nH]c2nnc(-c3ccccc3O)cc2c2c1CNCC2` [I-2, 2-(2-hydroxyphenyl)-7,8,9,10-tetrahydro-5H-pyridazino[3,4-c][2,7]naphthyridin-6-one] fall in the same range of IC50: 1 to 50 µM for the first, 1 to 50 µM for the second.

First: O=C1Nc2nnc(-c3ccccc3O)cc2C12CCNCC2 [I-7, 3-(2-hydroxyphenyl)spiro[7H-pyrrolo[2,3-c]pyridazine-5,4′-piperidine]-6-one]
Second: O=C1Nc2nnc(-c3ccccc3O)cc2C12CCN(c1ccccc1)CC2 [I-64, 3-(2-hydroxyphenyl)-1′-phenyl-spiro [7H-pyrrolo[2,3-c]pyridazine-5,4′-piperidine]-6-one]
The IC50 of the first is higher: > 200 µM for the first, 1 to 50 µM for the second. The second is the more potent here.

`Nc1ncc(N2C(=O)CCC2=O)cc1N1CCNCC1` [I-70, 1-(6-amino-5-(piperazin-1-yl)pyridin-3-yl)pyrrolidine-2,5-dione] and `Nc1ncc(N2CCNC2=O)cc1N1CCNCC1` [I-71, 1-(6-amino-5-piperazin-1-yl-3-pyridyl)imidazolidin-2-one] cannot be ordered by IC50: > 200 µM for the first, > 200 µM for the second.

`Nc1ncc(N2CCNCC2=O)cc1N1CCNCC1` [I-73, 1-(6-amino-5-piperazin-1-yl-3-pyridyl)piperazin-2-one] and `Nc1ncc2c(Cl)cccc2c1N1CCNCC1` [I-74, 8-chloro-4-(piperazin-1-yl)isoquinolin-3-amine] cannot be ordered by IC50: > 200 µM for the first, > 200 µM for the second.

Compared with `COCCNc1nnc(-c2ccccc2O)cc1N1CCNCC1` [I-101, 2-[6-(2-methoxyethylamino)-5-piperazin-1-yl-pyridazin-3-yl]phenol], `CC(=O)Nc1nnc(-c2ccccc2O)cc1N1CCNCC1` [I-102, N-[6-(2-hydroxyphenyl)-4-piperazin-1-yl-pyridazin-3-yl]acetamide] is lower in IC50: > 200 µM for the first, 51 to 200 µM for the second.

`Oc1ccccc1-c1cc2c(nn1)NC[C@@H]1CN(c3ncccn3)CCN21` [I-106, (R)-2-(8-(pyrimidin-2-yl)-6,6a,7,8,9,10-hexahydro-5H-pyrazino[1′,2′:4,5]pyrazino[2,3-c]pyridazin-2-yl)phenol] and `Oc1ccccc1-c1cc2c(nn1)NC[C@H]1CN(c3ncccn3)CCN21` [I-107, (S)-2-(8-(pyrimidin-2-yl)-6,6a,7,8,9,10-hexahydro-5H-pyrazino[1′,2′:4,5]pyrazino[2,3-c]pyridazin-2-yl)phenol] cannot be ordered by IC50: < 1 µM for the first, < 1 µM for the second.

`Oc1ccccc1-c1cc2c(nn1)NC[C@H]1CNCCN21` [I-108, (R)-2-(6,6a,7,8,9,10-hexahydro-5H-pyrazino[1′,2′:4,5]pyrazino[2,3-c]pyridazin-2-yl)phenol] and `Oc1ccccc1-c1cc2c(nn1)NCC1CNCCN21` (centres unmarked) [I-120, 2-(6,6a,7,8,9,10-hexahydro-5H-pyrazino[1′,2′:4,5]pyrazino[2,3-c]pyridazin-2-yl)phenol 2,2,2-trifluoroacetate] fall in the same range of IC50: 1 to 50 µM for the first, 1 to 50 µM for the second.

`C[C@@H]1c2c([nH]c3nnc(-c4ccccc4O)cc23)CCN1c1nccc(C2CCNCC2)n1` [I-110, (R)-2-(5-methyl-6-(4-(piperidin-4-yl)pyrimidin-2-yl)-6,7,8,9-tetrahydro-5H-pyrido[3′,4′:4,5]pyrrolo[2,3-c]pyridazin-3-yl)phenol] and `C[C@H]1c2c([nH]c3nnc(-c4ccccc4O)cc23)CCN1c1nccc(C2CCNCC2)n1` [I-111, (S)-2-(5-methyl-6-(4-(piperidin-4-yl)pyrimidin-2-yl)-6,7,8,9-tetrahydro-5H-pyrido[3′,4′:4,5]pyrrolo[2,3-c]pyridazin-3-yl)phenol] cannot be ordered by IC50: < 1 µM for the first, < 1 µM for the second.

`C[C@@H]1c2c([nH]c3nnc(-c4ccccc4O)cc23)CCN1c1ncc(C2CCNCC2)cn1` [I-112, (R)-2-(5-methyl-6-(5-(piperidin-4-yl)pyrimidin-2-yl)-6,7,8,9-tetrahydro-5H-pyrido[3′,4′:4,5]pyrrolo[2,3-c]pyridazin-3-yl)phenol] and `C[C@H]1c2c([nH]c3nnc(-c4ccccc4O)cc23)CCN1c1ncc(C2CCNCC2)cn1` [I-113, (S)-2-(5-methyl-6-(5-(piperidin-4-yl)pyrimidin-2-yl)-6,7,8,9-tetrahydro-5H-pyrido[3′,4′:4,5]pyrrolo[2,3-c]pyridazin-3-yl)phenol] cannot be ordered by IC50: < 1 µM for the first, < 1 µM for the second.

First: Oc1ccccc1-c1cc2c(nn1)[nH]c1ccc(C3CCNCC3)cc12 [I-114, 2-(6-(piperidin-4-yl)-9H-pyridazino[3,4-b]indol-3-yl)phenol]
Second: O=c1[nH]c2nnc(-c3ccccc3O)cc2n2cc(C3CCNCC3)cc12 [I-125, 2-(2-hydroxyphenyl)-8-(piperidin-4-yl)pyrrolo[1′,2′:4,5]pyrazino[2,3-c]pyridazin-6(5H)-one]
The IC50 of the first is lower: < 1 µM for the first, 1 to 50 µM for the second. The first is the more potent here.

`C[C@H]1NCCc2[nH]c3nnc(-c4ccccc4O)cc3c21` [I-115, (R)-2-(5-methyl-6,7,8,9-tetrahydro-5H-pyrido[3′,4′:4,5]pyrrolo[2,3-c]pyridazin-3-yl)phenol] and `C[C@@H]1NCCc2[nH]c3nnc(-c4ccccc4O)cc3c21` [I-117] fall in the same range of IC50: 51 to 200 µM for the first, 51 to 200 µM for the second.

`C[C@@H]1c2c([nH]c3nnc(-c4ccccc4O)cc23)CCN1c1ncccn1` [I-116, (R)-2-(5-methyl-6-(pyrimidin-2-yl)-6,7,8,9-tetrahydro-5H-pyrido[3′,4′:4,5]pyrrolo[2,3-c]pyridazin-3-yl)phenol] and `C[C@H]1c2c([nH]c3nnc(-c4ccccc4O)cc23)CCN1c1ncccn1` [I-118, (S)-2-(5-methyl-6-(pyrimidin-2-yl)-6,7,8,9-tetrahydro-5H-pyrido[3′,4′:4,5]pyrrolo[2,3-c]pyridazin-3-yl)phenol] cannot be ordered by IC50: < 1 µM for the first, < 1 µM for the second.

`O=C1NCCc2[nH]c3nnc(-c4ccccc4O)cc3c21` [I-119, 3-(2-hydroxyphenyl)-6,7,8,9-tetrahydro-5H-pyrido[3′,4′:4,5]pyrrolo[2,3-c]pyridazin-5-one] and `CC(C)(C)OC(=O)N1CC=C(c2cc3c(=O)[nH]c4nnc(-c5ccccc5O)cc4n3c2)CC1` [I-124, tert-butyl 4-(2-(2-hydroxyphenyl)-6-oxo-5,6-dihydropyrrolo[1′,2′:4,5]pyrazino[2,3-c]pyridazin-8-yl)-5,6-dihydropyridine-1(2H)-carboxylate] fall in the same range of IC50: 1 to 50 µM for the first, 1 to 50 µM for the second.

`O=C1Nc2nnc(-c3ccccc3O)cc2C12CCN(Cc1ccccc1)CC2` [I-121, 1′-benzyl-3-(2-hydroxyphenyl)spiro[7H-pyrrolo[2,3-c]pyridazine-5,4′-piperidine]-6-one] and `Oc1ccccc1-c1cc2c(cc3n2CCN(c2ncccn2)C3)nn1` [I-123, 2-(8-(pyrimidin-2-yl)-6,7,8,9-tetrahydropyrazino[1′,2′:1,5]pyrrolo[3,2-c]pyridazin-3-yl)phenol] fall in the same range of IC50: 1 to 50 µM for the first, 1 to 50 µM for the second.

`CC(=O)n1ncc2c(-c3cnn(C)c3)c(N)ncc21` [I-126, 1-[5-amino-4-(1-methylpyrazol-4-yl)pyrazolo[3,4-c]pyridine-1-yl]ethanone] and `CC(=O)Nc1cnc(N)c(-c2cnn(C)c2)c1C` [I-129, N-[6-amino-4-methyl-5-(1-methylpyrazol-4-yl)-3-pyridyl]acetamide] cannot be ordered by IC50: > 200 µM for the first, > 200 µM for the second.

First: Oc1ccccc1-c1ccc(NC2CCNCC2)nn1 [I-127, 2-[6-(4-piperidylamino)pyridazin-3-yl]phenol]
Second: Oc1ccccc1-c1cc(N2CCNCC2)c(NC2COC2)nn1 [I-128, 2-[6-(oxetan-3-ylamino)-5-piperazin-1-yl-pyridazin-3-yl]phenol]
The IC50 of the first is lower: 1 to 50 µM for the first, 51 to 200 µM for the second. The first is the more potent here.
